From patent publication US20220117920A1, “N-Aryl Benzenesulfonamides as Protonophores for the Treatment of Cancers, Metabolic Diseases and Traumatic Brain Injury” (University of Kentucky Research Foundation, priority 2019, published 2022) come the findings set out here.

Molecules are shown by their SMILES.

Series [1] is described as follows: Gross-toxicity assay in mice. The class given is in vivo. As to conditions: intraperitoneal injections up to 15 mg/kg for 5-6 weeks. The protocol:
FIGS. 20A-D show graphs and images illustrating FH535 effect in vivo. (A) Mice body weight after FH535 treatment. C57BL/6 mice (n=5) were treated by intraperitoneal injection with 15 mg/Kg of FH535 or DMSO vehicle control every 4 days for 6 weeks. Mice were monitored before injections for signs of body weight loss, impaired mobility, labored breathing and body score based on the Ullman-Culleré MH, Foltz CJ method. (B-D) FH535 reduces tumor growth in vivo in a xenograft tumor model. Huh7 cell were injected subcutaneously on the right flank of athymic nude mice. FH535 (15 mg/Kg) or vehicle (DMSO) were administrated by intraperitoneal injection every other day when tumor size reached 100 mm^3. (B) Tumor growth was monitored every other day until day 10 of starting treatments when mice were euthanized according to the AVMA guidelines, *p<0.05 (n=5, each group); (C) Tumor weight of excised tumors after 10 day treatment with FH535 reduced the tumor weight in 42±8% compared to vehicle treatment, **p<0.001 (n=4, each group). (D) H&E and ki67 stainings from one representative tumor of each group treatment. Pictures were taken at 400× magnification.
To validate further the in vivo anti-tumor effect of FH535, we performed a gross-toxicity assay in mice with FH535 doses ranging from 0 to 30 mg/kg. […] Next, we evaluated the in vivo anti-tumor activity of FH535 in a Huh7 tumor xenograft model. […]

Series [2] relates to Huh7 tumor xenograft. The series can be described thus: Huh7 tumor xenograft model in athymic nude mice. The series is classed as in vivo. The protocol: All animal experiments were performed in accord with the guidelines, rules and recommendations and was approved by the University of Kentucky Institutional Animal Care and Use Committee after approval (IACUC). Three- to four-weeks old female athymic nude mice (nu/nu, The Jackson Laboratory, USA) were housed in a pathogen-free environment at the Division of Laboratory Animal Resources of the Chandler Medical Center, University of Kentucky. To generate in vivo tumors, Huh7 culture cells in mid-log phase growth were collected and re-suspended in a 50% mixture of Matrigel (BD Biosciences, USA) in serum-free medium to a final concentration of 6×10^7 cells per mL. A volume of 0.1 mL of the cell suspension was injected subcutaneously in the right flank of each mouse. Mice were weighed and checked for tumor growth every other day. When tumors reached a volume of 100 mm^3, mice were randomly divided into two groups of 5: vehicle control group and FH535 group (receiving 15 mg of FH535/kg/day from a stock prepared in dimethyl sulfoxide (DMSO) at 21.7 mg/mL and diluted in serum-free medium to a final concentration of 40% DMSO). Vehicle and FH535 were administered by intraperitoneal injection every other day. Tumors were measured using an optical caliper and tumor size was calculated using the formula: 0.5×length×(width)^2. Mice were euthanized at the end of the experiment or when reaching humane end-point following AVMA guidelines. Humane end-points included animals with tumors exceeding 20 mm in maximum diameter, with ulcerated tumors, more than 20% body weight loss, impaired mobility, labored breathing or with a body condition score below 2.
Tumors from the xenograft model were formaldehyde fixed and paraffin-embedded and were used to performed H&E staining and immunohistochemistry of Ki-67 according to standard procedures.

In series [3] the test system is p62. Description: RT-qPCR of p62 mRNA in Huh7 cells. The series is classed as cell-based, human. As to conditions: Huh7, absence of CQ. The method, then: Total RNA was extracted with miRNeasy mini kit (Qiagen, Germany), and the corresponding cDNA was produced using iScript cDNA synthesis kit (BioRad, USA) from 1 μg of total RNA. Real time quantitative PCR (RT-qPCR) was performed using SsoAdvanced Universal SYBR Green supermix (BioRad, USA) with specific primers: p62 (SQSTM1: 5′-[…]-3′ (SEQ ID NO: 1) and 5′-[…]-3′ (SEQ ID NO: 2)); c-MYC (cMYC: 5′-[…]-3′ (SEQ ID NO: 3) and 5′-[…]-3′ (SEQ ID NO: 4)), Survivin (BIRC5, 5′-[…]-3′ (SEQ ID NO: 5) and 5′-[…]-3′ (SEQ ID NO: 6)), AXIN 2 (AXIN2: 5′-[…]-3′ (SEQ ID NO: 7) and 5′-[…]-3′ (SEQ ID NO: 8)), Cyclin D1 (5′-CCND1: […]-3′ (SEQ ID NO: 9) and 5′-[…]-3′ (SEQ ID NO: 10)), and b2-microglobulin (B2M: 5′-[…]-3′ (SEQ ID NO: 11) and 5′-[…]-3′ (SEQ ID NO: 12)). Transcript levels were normalized to β-actin or […] level as indicated using the ΔΔCt method.

The test system of series [4] is Huh7 cells. Description: Cyto-ID autophagy detection assay in Huh7 cells. As to conditions: Huh7, 40 h, ±50 μM CQ. The class given is cell-based, human. The method, then: Autophagy responses were monitored with the Cyto-ID autophagy detection reagent 2.0 (Enzo Life Sciences, USA) according to the manufacturer's instructions. Huh7 and PLC/PRF/5 cells were seeded in 12-well plates and treated the following day with drugs or DMSO vehicle control at the indicated concentrations. CQ was added to the corresponding wells to a final concentration of 50 μM 8 h prior harvesting. After 40 h of drug treatment, cells were collected and assessed for viability with Zombie Violet dye solution (BioLegend, USA) followed by Cyto-ID autophagy detection reagent staining. Flow cytometry analyses were performed in a BD LSRII at the Flow Cytometry and Cell Sorting Shared Resource Facility of the University of Kentucky Markey Cancer Center and data were analyzed with the FlowJo Software version 7.6.5 (Tree Star, USA). The autophagic flux was quantified by subtracting the Cyto-ID MFI value of the sample without CQ from the Cyto-ID MFI value of the sample with CQ for each condition according to the formula: […]

Series [5] has as its system Wnt/β-catenin pathway. The series can be described thus: TOP-Flash TCF4-dependent dual luciferase reporter assay in Huh7 cells. The series is classed as cell-based, human. As to conditions: Huh7, 10 mM LiCl. The protocol:
Cells were plated at 1×10^5 cells/well in 24-well plates and transiently transfected with 490 ng of luciferase-reporter plasmid and 10 ng of phRL-TK per well using the Turbofect transfection reagent (Thermo Scientific, USA). After 5-6 h post-transfection, cells were treated with drug(s) or DMSO vehicle control for 36 h in the presence or absence of LiCl (10 mM). Luciferase assays were performed using the Dual Luciferase Assay System (Promega, USA) according to manufacturer's instructions.

Regarding `Cc1cc([N+](=O)[O-])ccc1NS(=O)(=O)c1cc(Cl)ccc1Cl` [FH535, 2,5-dichloro-N-(2-methyl-4-nitrophenyl)benzenesulfonamide], the “signs of body distress or toxicity (weight loss, ambulatory ability, respiration, dehydration)” value in series [1] is listed as “did not induce major signs of body distress or toxicity”. Also, the “reduction of tumor weight compared to vehicle” value in series [2] (15 mg/Kg i.p. every other day, 10 day treatment) amounted to 42±8%. The “tumor volume compared to control group” value in series [2] (15 mg/kg every other day, after four days of treatment, p<0.05) is listed as “significantly reduced”. The “proliferation index (Ki-67)” value in series [2] (excised tumors, same in control group) is on record as “greater than 95%”. In addition, the “p62 mRNA levels” value in series [3] was “increase of p62 mRNA levels”. The “autophagic flux (Cyto-ID)” value in series [4] is “reduced accumulation of autophagic vesicles”. The “Wnt/β-catenin transcriptional activity (TOP-Flash)” value in series [5] is reported as “target the Wnt/β-catenin signaling pathway”.
